Key:
[1] = tested on: fluorescently labelled DNA duplex 5′-[…]-3′; assay: FRET DNA melting, FIG. 17 top sequence; format: binding; details: suggests interstrand cross-link formation
Description: (§1) Further FRET DNA melting studies were undertaken on a number of molecules using three fluorescently labelled sequences. The sequences (FIG. 17) were designed to provide additional evidence that the series can form inter- and intrastrand cross-links. Inosines were inserted in place of traditional DNA bases in some cases to limit the number of binding sites available for the compounds to interact with. The short duplexes used in this FRET study are relatively unstable in the duplex form with a melting temperature below 30° C. so that, in the absence of ligand, a large part of the melting occurs below the starting temperature of the experiment. […] Increasing concentrations of 13 cause a greater amount of the melting transition to appear at the higher temperature (i.e. a greater number of the DNA molecules are cross-linked). […]
(§2) The reaction mixture was comprised of 4 μL of 250 mM phosphate buffer (final concentration of 50 mM), 4 μL flourophor and 4 μL quencher molecule of the appropriate oligonucleotide for a final concentration of 0.2 PM, 4 μL 5 M sodium chloride (final concentration of 1 M NaCl), and 4 μL of distilled H2O. […] This mixture was analysed without prior annealing.
(§3) Fluorescence melting profiles were measured using a Roche LightCycler using a total reaction volume of 20 μL. […] Annealing steps and melting steps were all recorded and changes in fluorescence were measured at 520 nm. […]

[2] = tested on: fluorescently labelled DNA duplex 5′-[…]-3′; assay: FRET DNA melting, FIG. 17 middle sequence; format: binding; details: suggests interstrand cross-link formation
Description: as §1, §2, §3

TyrT DNA fragment = assay: DNA cleavage assay, TyrT fragment; format: biochemical
Description: The ability of 13 and of a series of compounds to cleave double-stranded DNA was investigated using a modification of the previously established DNA footprinting assay (34). Following an overnight incubation of the ligand-DNA complexes, the mixture was mixed with strand separation buffer containing 10 mM EDTA, 10 mM NaOH, 0.1% bromophenol blue, 80% formamide and incubated at 100° C. for 3 min. The mixture was then immediately cooled on ice and run on an 8% denaturing gel. […] Using the GA marker, these additional bands were identified as cleavage products produced by 13 at certain A sites of the DNA fragment.
The preparation of the TyrT DNA fragment (FIG. 8) and HexARev DNA fragment (FIG. 15) have been previously described (34). Briefly, the sequence which had been cloned into the BamHI site of pUC18 was obtained by cutting with HindIII and EcoRI. Radiolabelled DNA fragments were prepared by filling in the 3′-end of the HindIII site with [α-^32P]dATP using Klenow DNA polymerase (exo-).
The radiolabelled DNA fragment was separated from the remainder of the plasmid DNA on a 6% non-denaturing polyacrylamide gel. The gel (20 cm long, 0.3 mm thick) was run at 400 V in 1×TBE running buffer for about 1-2 h, until the bromophenol blue had run most of the way down the gel. […]

Compound	Tm value [1]	Tm value [2]	number of preferred sites observed in the TyrT DNA fragment (TyrT DNA fragment; cleavage at A sites)	cleavage of TyrT DNA fragment (TyrT DNA fragment; overnight incubation, 100° C. for 3 min, 8% denaturing gel (FIG. 11))
COc1cc2c(cc1OCc1cccc(CC(=O)N3C[C@@H](CCl)c4c3cc(O)c3ccccc43)c1)N=C[C@@H]1CCCCN1C2=O [Compound 42, (S)-3-((3-(2-((S)-1-(Chloromethyl)-5-hydroxy-1,2-dihydro-3H-benzo[e]indol-3-yl)-2-oxoethyl)benzyl)oxy)-2-methoxy-7,8,9,10-tetrahydrobenzo[e]pyrido[1,2-a][1,4]diazepin-12(6aH)-one]	~80 °C	~80 °C	–	–
COc1cc2c(cc1OCCCC(=O)N1C[C@@H](CCl)c3c1cc(O)c1ccccc31)N=C[C@@H]1CCCCN1C2=O [Compound 13, (S)-3-(4-((S)-1-(Chloromethyl)-5-hydroxy-1,2-dihydro-3H-benzo[e]indol-3-yl)-4-oxobutoxy)-2-methoxy-7,8,9,10-tetrahydrobenzo[e]-pyrido[1,2-a][1,4]diazepin-12(6aH)-one]	–	–	three	distinct cleavage patterns
